Test results from patent US20230346889A9, “TREATMENT OF ACUTE HEART FAILURE” (AnaCardio R&D AB, priority 2019, published 2023).

Experiment: Plasma acyl ghrelin pharmacokinetics (custom ELISA)
Type: in vivo, human
Description: In samples dedicated for ghrelin measurements a protease inhibitor cocktail was prepared, consisting of 5.5 μl 10 mM KR-62436 (DPP4 inhibitor) in DMSO and a SIGMAFAST® protease inhibitor tablet (both produced by Sigma-Aldrich Corp., St. Louis, Mo., USA) dissolved in 2100 μl of distilled water (50×stock). Blood samples were drawn using 6 mL EDTA plasma tubes, immediately put on ice and 160 μl of the 50×protease inhibitor cocktail was added. Tubes were vortexed for 10 seconds and centrifuged at 4° C., 10 min, 2500 relative centrifugal force (RCF, or g). The resulting supernatant (plasma) was then pipetted into Eppendorf tubes (450 μl each) and immediately frozen at −70° C. until analyzed.
Plasma concentrations of active (acylated) ghrelin were assayed by a custom ELISA using electrochemiluminescence detection. Plasma samples were thawed and vortexed. They were then analyzed in duplicate on 96-well multispot plates (Meso Scale Diagnostics, Rockville, Md., USA) coated with capture antibodies against acyl-ghrelin according to manufacturer instructions. The Meso Scale Diagnostics Sector Imager 2400 was used to read the plates. The coefficients of variation (CV %) calculated from plasma concentrations after curve fitting were 9.3/3.5 (intra/inter-assay CV %). The lower limit of detection was 3.2 ng/L and upper limit was set at 10,000 ng/L.

For `CCCCCCCC(=O)OC[C@H](NC(=O)[C@H](CO)NC(=O)CN)C(=O)N[C@@H](Cc1ccccc1)C(=O)N[C@@H](CC(C)C)C(=O)N[C@@H](CO)C(=O)N1CCC[C@H]1C(=O)N[C@@H](CCC(=O)O)C(=O)N[C@@H](Cc1cnc[nH]1)C(=O)N[C@@H](CCC(N)=O)C(=O)N[C@@H](CCCNC(=N)N)C(=O)N[C@H](C(=O)N[C@@H](CCC(N)=O)C(=O)N[C@@H](CCC(N)=O)C(=O)N[C@@H](CCCNC(=N)N)C(=O)N[C@@H](CCCCN)C(=O)N[C@@H](CCC(=O)O)C(=O)N[C@@H](CO)C(=O)N[C@@H](CCCCN)C(=O)N[C@@H](CCCCN)C(=O)N1CCC[C@H]1C(=O)N1CCC[C@H]1C(=O)N[C@@H](C)C(=O)N[C@@H](CCCCN)C(=O)N[C@@H](CC(C)C)C(=O)N[C@@H](CCC(N)=O)C(=O)N1CCC[C@H]1C(=O)N[C@@H](CCCNC(=N)N)C(=O)O)C(C)C` [Ghrelin], the “plasma acyl ghrelin” value (2-5 days follow-up) was “normalized”, the “plasma acyl ghrelin” value (30 minutes after infusion) was “near normalized” and the “median plasma acyl ghrelin concentrations” value (during infusion, treatment group) was “quickly reached near the maximum of the assay”. For the same compound, the level at 0.5 h (human, plasma, 0.1 ug/kg/min, Infusion 30 min, iv 0.1 μg/kg/min, read-out: plasma acyl ghrelin (median, interquartile range)) was 6.11 ng/mL, the level at 1 h (human, plasma, iv, 0.1 ug/kg/min, Infusion 60 min, read-out: plasma acyl ghrelin (median, interquartile range)) was 6.84 ng/mL and the level at 2 h (human, plasma, iv, 0.1 ug/kg/min, Infusion 120 min, read-out: plasma acyl ghrelin (median, interquartile range)) was 6.54 ng/mL.
